Here are results for 38 molecules from patent US5968952A, “Farnesyl transferase inhibiting 2-quinolone derivatives” (Janssen Pharmaceutica, N.V., priority 1995, dated 1999).

SMILES strings stand for the structures.

The target in one assay is T1, Human farnesyl protein transferase (Homo sapiens, UniProt P49354+P49356).
T1 construct: were used as a source of human enzyme; endogenous in cells; host or cells: Kirsten virus transformed human osteosarcoma (KHOS) cells (ATCC), grown as monolayers or as solid tumors in nude mice; ammonium sulfate fraction and Q Sepharose pool
Description: In Vitro Assay for Inhibition of Farnesyl Protein Transferase ([3H] Scintillation Proximity Assay). In kind it is biochemical. The note with it: Table 7; human enzyme from KHOS cells; biotinylated lamin B peptide substrate; 60 min, 37° C.; read-out: IC50 (concentration of test compound producing 50% inhibition of enzyme activity). How it is done:
In Vitro Assay for Inhibition of Farnesyl Protein Transferase Human farnesyl protein transferase was prepared essentially as described ([…] al., Methods: A Companion to Methods in Enzymology vol 1, 241-245, 1990). Kirsten virus transformed human osteosarcoma (KHOS) cells (American Type Culture Collection, Rockvill, Md., USA) grown as solid tumors in nude mice or grown as monolayer cell cultures were used as a source of human enzyme. Briefly, cells or tumors were homogenized in buffer containing 50 mM Tris, 1 mM EDTA, 1 mM EGTA and 0.2 mM phenylmethylsulfonylfluoride (pH 7.5). The homogenates were centrifuged 28,000× g for 60 min and the supernatants collected. A 30-50% ammonium sulfate […] prepared, and the resulting precipitate was resuspended in a small (10 to 20 ml) volume of dialysis buffer containing 20 mM Tris, 1 mM dithiothreitol and 20 μM ZnCl2. The ammonium sulfate fraction was dialyzed overnight against two changes of the same buffer. The dialyzed material was applied to a 10×1 cm Q Fast Flow Sepharose (Pharmacia LKB Biotechnology Inc., Piscataway, N.J., USA) which had been preequilibrated with 100 ml of dialysis buffer supplemented with 0.05M NaCl. The column was washed with an additional 50 ml of dialysis buffer plus 0.05M NaCl followed by a gradient from 0.05M to 0.25M NaCl prepared in dialysis buffer. The enzyme activity was eluted with a linear gradient of 0.25 to 1.0M NaCl prepared in the dialysis buffer. Fractions containing 4 to 5 ml volumes of column eluate were collected and analyzed for farnesyl protein transferase activity. Fractions with enzyme activity were pooled and supplemented with 100 μM ZnCl2. Enzyme samples were stored frozen at -70° C. The activity of farnesyl protein transferase was measured using the Farnesyl Transferase [^3 H] Scintillation Proximity Assay (Amersham International plc., England) under the conditions specified by the manufacturer. […] The reaction mixture was warmed to 37° C. The enzyme reaction was started by adding 20 μl of diluted human farnesyl protein transferase. […] Reactions were terminated by the addition of STOP/scintillation proximity bead reagent (Amersham). The reaction product [^3 H]-farnesyl-(Cys)-biotin lamin B peptide was captured on the streptavidin linked scintillation proximity bead. The amount of [^3 H]-farnesyl-(Cys)-biotin lamin B peptide synthesized in the presence or absence of test compounds was quantified as cpm by counting on a Wallac Model 1480 Microbeta Liquid Scintillation Counter. The cpm of product was considered to be farnesyl protein transferase activity. The protein farnesyl transferase activity observed in the presence of test compound was normalized to farnesyl transferase activity in the presence of 10% DMSO and expressed as per cent inhibition. […] W. Johnson Pharmaceutical Research Institue (Spring House, Pa., USA) on a VAX computer.
Regarding `O=c1cc(-c2ccccc2)c2cc(C(c3ccccc3)n3ccnc3)ccc2[nH]1` (racemic) [Compound 1, (±)-6-[(1H-imidazol-1-yl)phenylmethyl]-4-phenyl-2(1H)-quinolinone], the IC50 was 930 nM.
Take `Cn1c(=O)cc(-c2ccccc2)c2cc(C(c3ccc(Cl)cc3)n3ccnc3)ccc21` (racemic) [Compound 8, (±)-6-[(4-chlorophenyl)-1H-imidazol-1-yl-methyl]-1-methyl-4-phenyl-2(1H)-quinolinone]: the IC50 amounted to 70 nM.
As to `COC(=O)C(CC(C)C)NC(=O)Cn1c(=O)cc(-c2ccccc2)c2cc(C(c3ccc(Cl)cc3)n3ccnc3)ccc21` (racemic) [Compound 39], the IC50 was 47 nM.
The same measure, in the same setting: under `O=C1CC(c2ccccc2)c2cc(C(c3ccc(Cl)cc3)n3ccnc3)ccc2N1` (racemic) [Compound 57, (±)-6-[(4-chlorophenyl)-1H-imidazol-1-ylmethyl]-3,4-dihydro-4-phenyl-2(1H)-quinolinone] stands 1200 nM; under `Cn1c(=O)cc(-c2ccccc2)c2cc(C(CO)(c3ccc(Cl)cc3)n3ccnc3)ccc21` (racemic) [Compound 59, (±)-6-[1-(4-chlorophenyl)-2-hydroxy-1-(1H-imidazol-1-yl)ethyl]-1-methyl-4-phenyl-2(1H)-quinolinone monohydrate], 13 nM.
With `Cn1c(=O)cc(-c2cccc(Cl)c2)c2cc(C(C)(c3ccc(Cl)cc3)n3ccnc3)ccc21` (racemic) [Compound 62, (±)-4-(3-chlorophenyl)-6-[1-(4-chlorophenyl)-1-(1H-imidazol-1-yl)ethyl]-1-methyl-2(1H)-quinolinone], the IC50 stood at 22 nM.
Turning to `Oc1cc(-c2ccccc2)c2cc(C(c3ccc(Cl)cc3)n3ccnc3)ccc2n1` (single isomer, unassigned; (-)) [Compound 7, (-)-(B)-6-[(4-chlorophenyl)-1H-imidazol-1-ylmethyl]-4-phenyl-2(1H)-quinolinone], the IC50 was found to be 110 nM.
On to `O=c1cc(-c2ccccc2)c2cc(C(c3ccc(Cl)cc3)n3ccnc3)ccc2[nH]1` (centres unmarked) [Compound 2], for which the IC50 was determined as 180 nM.
Regarding `O=c1cc(-c2ccccc2)c2cc(C(c3cccc(Cl)c3)n3ccnc3)ccc2[nH]1` (centres unmarked) [Compound 3], the IC50 turned out to be 1400 nM.
Consider `O=c1cc(-c2ccccc2)c2cc(C(c3ccc(F)cc3)n3ccnc3)ccc2[nH]1` (centres unmarked) [Compound 4], for which the IC50 worked out at 315 nM.
Regarding `O=c1cc(-c2ccccc2)c2cc(C(c3ccc(Cl)cc3)n3ccnc3)ccc2n1Cc1ccccc1` (centres unmarked) [Compound 10], the IC50 was 220 nM.
Take `O=c1cc(-c2ccc(Cl)cc2)c2cc(C(c3ccc(Cl)cc3)n3ccnc3)ccc2[nH]1` (centres unmarked) [Compound 11]: the IC50 stood at 320 nM.
Take `O=c1cc(-c2ccccc2Cl)c2cc(C(c3ccc(Cl)cc3)n3ccnc3)ccc2[nH]1` (centres unmarked) [Compound 12]: the IC50 came out at 3200 nM.
Turning to `O=c1cc(-c2cccc(Cl)c2)c2cc(C(c3ccc(Cl)cc3)n3ccnc3)ccc2[nH]1` (centres unmarked) [Compound 13, 4-(3-chlorophenyl)-6-[(4-chlorophenyl)-1H-imidazol-1-ylmethyl]-2(1H)-quinolinone], the IC50 turned out to be 34 nM.
For the molecule `CCCn1c(=O)cc(-c2ccccc2)c2cc(C(c3ccc(Cl)cc3)n3ccnc3)ccc21` (centres unmarked) [Compound 14], the IC50 stood at 700 nM.
On the same count and under the same terms, in the case of `Cn1c(=O)cc(-c2cccc(Cl)c2)c2cc(C(c3ccc(Cl)cc3)n3ccnc3)ccc21` (centres unmarked) [Compound 15, 4-(3-chlorophenyl)-6-[(4-chlorophenyl)-1H-imidazol-1-ylmethyl]-1-methyl-2(1H)-quinolinone] it was 16 nM; in that of `CCOC(=O)Cn1c(=O)cc(-c2ccccc2)c2cc(C(c3ccc(Cl)cc3)n3ccnc3)ccc21` (centres unmarked) [Compound 17], 230 nM; in that of `Cc1cccc(-c2cc(=O)[nH]c3ccc(C(c4ccc(Cl)cc4)n4ccnc4)cc23)c1` (centres unmarked) [Compound 18], 40 nM.
Still for that read-out and setting: in the case of `O=c1cc(-c2cccc(C(F)(F)F)c2)c2cc(C(c3ccc(Cl)cc3)n3ccnc3)ccc2[nH]1` (centres unmarked) [Compound 20] it was 240 nM; in that of `O=c1cc(-c2cccc(F)c2)c2cc(C(c3ccc(Cl)cc3)n3ccnc3)ccc2[nH]1` (centres unmarked) [Compound 21], 150 nM; in that of `COc1cccc(-c2cc(=O)[nH]c3ccc(C(c4ccc(Cl)cc4)n4ccnc4)cc23)c1` (centres unmarked) [Compound 24], 32 nM.
For `Cc1ccc(C(c2ccc3[nH]c(=O)cc(-c4ccccc4)c3c2)n2ccnc2)cc1` (centres unmarked) [Compound 25], the IC50 was 262 nM.
`O=c1cc(-c2ccc(Cl)c(Cl)c2)c2cc(C(c3ccc(Cl)cc3)n3ccnc3)ccc2[nH]1` (centres unmarked) [Compound 26]: the IC50 came to 227 nM.
`Cc1ccc(-c2cc(=O)[nH]c3ccc(C(c4ccc(Cl)cc4)n4ccnc4)cc23)cc1` (centres unmarked) [Compound 27]: the IC50 turned out to be 193 nM.
`Cc1ccccc1-c1cc(=O)[nH]c2ccc(C(c3ccc(Cl)cc3)n3ccnc3)cc12` (centres unmarked) [Compound 28]: the IC50 is 2200 nM.
With `COc1ccc(CCn2c(=O)cc(-c3ccccc3)c3cc(C(c4ccc(Cl)cc4)n4ccnc4)ccc32)cc1` (centres unmarked) [Compound 29], the IC50 was 2400 nM.
Take `O=c1cc(-c2cccc(Br)c2)c2cc(C(c3ccc(Cl)cc3)n3ccnc3)ccc2[nH]1` (centres unmarked) [Compound 30]: the IC50 worked out at 21 nM.
Turning to `O=c1cc(-c2ccccc2)c2cc(C(c3ccc(Cl)cc3Cl)n3ccnc3)ccc2[nH]1` (centres unmarked) [Compound 31], the IC50 came out at 480 nM.
Turning to `O=c1cc(-c2ccccc2)c2cc(C(c3ccccc3Cl)n3ccnc3)ccc2[nH]1` (centres unmarked) [Compound 32], the IC50 was found to be 530 nM.
As for `COc1ccc(C(c2ccc3[nH]c(=O)cc(-c4ccccc4)c3c2)n2ccnc2)cc1` (centres unmarked) [Compound 33], the IC50 stood at 850 nM.
On the same count and under the same terms, in the case of `O=c1cc(-c2ccccc2)c2cc(C(c3ccc(Cl)c(Cl)c3)n3ccnc3)ccc2[nH]1` (centres unmarked) [Compound 34] it was 600 nM; in that of `O=c1cc(-c2cc(Cl)cc(Cl)c2)c2cc(C(c3ccc(Cl)cc3)n3ccnc3)ccc2[nH]1` (centres unmarked) [Compound 37], 96 nM; in that of `O=c1cc(-c2ccccc2)c2cc(C(c3ccc(Cl)cc3)n3cnc(-c4ccccc4)c3)ccc2[nH]1` (centres unmarked) [Compound 47], 105 nM.
For the molecule `Cc1cncn1C(c1ccc(Cl)cc1)c1ccc2[nH]c(=O)cc(-c3ccccc3)c2c1` (centres unmarked) [Compound 49], the IC50 came out at 300 nM.
As for `Cc1cncn1C(c1ccc(Cl)cc1)c1ccc2[nH]c(=O)cc(-c3cccc(Cl)c3)c2c1` (centres unmarked) [Compound 53], the IC50 turned out to be 32 nM.
For `CC(c1ccc(Cl)cc1)(c1ccc2[nH]c(=O)cc(-c3ccccc3)c2c1)n1ccnc1` (centres unmarked) [Compound 58], the IC50 amounted to 270 nM.
As for `CCCC(c1ccc(Cl)cc1)(c1ccc2c(c1)c(-c1cccc(Cl)c1)cc(=O)n2C)n1ccnc1` (centres unmarked) [Compound 65], the IC50 was determined as 51 nM.

A further assay has as its system NIH 3T3 cells transformed by the T24 activated human H-ras gene. Description: Ras-Transformed Cell Phenotype Reversion Assay. The assay is classed as cell-based, mouse. Particulars: NIH3T3; Table 8; T24 H-ras transformed NIH 3T3 cells; 72 hours; cell counts. From the text: "Ras-Transformed Cell Phenotype Reversion Assay" Insertion of activated oncogenes such as the mutant ras gene into mouse NIH 3T3 cells converts the cells to a transformed phenotype. The cells become tumorigenic, display anchorage independent growth in semi-solid medium and lose contact inhibition. Loss of contact inhibition produces cell cultures which no longer form uniform monolayers. Rather, the cells pile up into multicellular nodules and grow to very high saturation densities in plastic tissue culture dishes. Agents such as protein farnesyl transferase inhibitors which revert the ras transformed phenotype restore the uniform monolayer growth pattern to cells in culture. This reversion is easily monitored by counting the number of cells in tissue culture plates. Transformed cells will achieve higher cell numbers than cells which have reverted to an untransformed phenotype. Compounds which revert the transformed phenotype should produce antitumor effects in tumors bearing ras gene mutations. Method Compounds are screened in tissue culture in NIH 3T3 cells transformed by the T24 activated human H-ras gene. Cells are seeded at an initial density of 200,000 cells per well (9.6 cm^2 surface area) in six-well cluster tissue culture plates. Test compounds are immediately added to 3.0 ml cell growth mediuim in a 3.0 μl volume of DMSO, with a final concentration of DMSO in the cell growth medium of 0.1%. […] Then the cells are detached in 1.0 ml trypsin-EDTA cell dissociation medium and counted on a Coulter particle counter. Measurements Cell numbers expressed as cells per well are measured using a Coulter Particle Counter. All cell counts were corrected for the initial cell input density by subtracting 200,000. Control cell counts=[cell counts from cells incubated with DMSO vehicle--200,000] Test compound cell counts=[cell counts from cells incubated with test compound--200,000]. [formula]
Regarding `CCCOc1cccc(-c2cc(=O)n(C)c3ccc(C(c4ccc(Cl)cc4)n4ccnc4)cc23)c1` (racemic) [Compound 74, (±)-6-[(4-chlorophenyl)-1H-imidazol-1-ylmethyl]-1-methyl-4-(3-propoxyphenyl)-2(1H)-quinolinone ethanedioate (2:3).sesquihydrate], the IC50 was found to be 500 nM.
